Here are results for 14 molecules from patent US20230146233A1, “A CLASS OF POLYCYCLIC COMPOUNDS INHIBITING RNA HELICASE DHX33 AND THE APPLICATION THEREOF” (Shenzhen KeYe Life Technologies, Co., Ltd, priority 2020, published 2023).

Molecules are shown by their SMILES. Bounds are passed on as bounds.

In one test the test system is U251-MG cells. As to the kind of experiment: Half-maximal cell-inhibitory concentration on U251-MG cells (CCK-8). The test is classed as cell-based. To be noted: Homo sapiens, U-251, U251-MG cells (DHX33-overexpressing cancer cell strain), 48 hours, read-out: IC50 (half-maximal inhibitory concentrations of compounds on U251-MG cells). In short, it runs like this:
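[…]-overexpressing glioma cells seeded at 1×10^4 cells/well, exposed to compound from 5 nM to 20 μM for 48 hours at 37° C, 5% CO2. Viability read by CCK-8 after 2 hours (OD 450 nm); IC50 from inhibition curves, three repeats.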

The next test addresses T1, DHX33 protein (Mus musculus, UniProt Q80VY9).
T1 construct: purified full-length DHX33 protein; made in house; host or cells: E. coli BL-21pLysS (DE3)
T1 sequence (Q80VY9 1-698): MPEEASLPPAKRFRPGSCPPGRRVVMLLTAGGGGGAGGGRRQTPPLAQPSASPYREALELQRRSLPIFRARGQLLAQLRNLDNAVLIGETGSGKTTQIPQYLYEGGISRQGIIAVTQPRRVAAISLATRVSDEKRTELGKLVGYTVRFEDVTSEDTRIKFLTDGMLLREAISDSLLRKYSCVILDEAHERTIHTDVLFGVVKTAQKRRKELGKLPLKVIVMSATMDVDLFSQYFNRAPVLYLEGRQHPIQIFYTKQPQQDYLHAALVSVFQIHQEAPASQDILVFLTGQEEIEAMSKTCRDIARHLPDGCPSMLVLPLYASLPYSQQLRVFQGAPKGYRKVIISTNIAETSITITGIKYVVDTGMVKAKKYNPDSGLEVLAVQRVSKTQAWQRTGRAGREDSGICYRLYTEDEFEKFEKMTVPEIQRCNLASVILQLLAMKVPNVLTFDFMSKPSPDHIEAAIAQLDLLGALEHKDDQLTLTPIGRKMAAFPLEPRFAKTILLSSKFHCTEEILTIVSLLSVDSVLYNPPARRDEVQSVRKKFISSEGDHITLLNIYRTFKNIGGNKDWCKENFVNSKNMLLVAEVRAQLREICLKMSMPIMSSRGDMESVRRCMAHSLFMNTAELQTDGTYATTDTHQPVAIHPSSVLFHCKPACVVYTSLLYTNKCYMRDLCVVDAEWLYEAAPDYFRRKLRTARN
As to the kind of experiment: Inhibition of the helicase activity of DHX33 protein in vitro. The class given is biochemical. The conditions noted are these: recombinant DHX33 protein, compound 1-1000 nM, 37° C., 60 minutes; read-out: IC50 (inhibitory effects of the compounds on the helicase activity of DHX33 protein). How it is done: Biochemistry. 2019:58 (4):250-8. RNA helicase gene (mouse DHX33 gene) was cloned into a pET32M-3C vector (between BamH I/Not I restriction sites). Afterward, the plasmid was transformed into BL-21pLysS (DE3) E. coli. 0.5 mM isopropyl 1-thio-βp-D-galactopyranoside (IPTG) was added, and the expression of the recombinant protein was induced at 16° C. for 16 hours. Cells were allowed to precipitate and were resuspended in a cell lysis buffer [50 mM Tris-HCl (pH7.2), 150 mM NaCl, 1% Triton X-100, and 50 mM imidazole supplemented with a protease inhibitor]. Thereafter, cells were subjected to ultrasonic treatment and centrifuged at a rotation speed of 13000 rpm for 25 minutes. The supernatant was incubated with the nickel-nitrilotriacetic acid beads equilibrated in Tris buffer, followed by sufficient washing. Thereafter, the purified protein was eluted with a solution of 300 mM imidazole in Tris buffer, and was then subjected to dialysis against an imidazole-free Tris buffer at 4° C. overnight.
The components involved in the reaction for testing the helicase activity were added to a 96-well opaque white plate. The method was outlined as follows. The 96-well plate was coated with neutravidin at a final concentration of 10 μg/mL (100 μl/well) overnight at 4° C. Afterwards, the neutravidin-coated plate was blocked with 100 μL of 0.1% (w/v) BSA (dissolved in normal PBS) at 22° C. for 2 hours. After washing, a DNA duplex (2.5 ng) that was resulted from the annealing of two single-stranded DNA oligonucleotides (the sequence of one single strand was biotin-labeled 5′-[…]-3′; and the sequence of the other single strand was DIG-labeled 5′-[…]-3′) [the annealing reaction was carried out in PBS (pH 7.0) containing 1M NaCl] was added, and the resulting mixture was incubated at 22° C. for 4 hours. After the addition of 90 μL of the reaction mixture, the helicase reaction was initiated [0.25 pig of purified full-length DHX33 protein, dissolved in 25 mM 4-MOPS (pH 7.0), 5 mM ATP 2 mM DTT, 3 mM MnCl2 and 100 μg/mL BSA]. The reaction was conducted at 37° C. for 60 minutes. After being washed, each well was incubated with a blocking solution [10% (w/v) BSA in 0.1 M maleic acid and 0.15 M NaCl (pH 7.5)] for 30 minutes, and was then incubated with 20 μL of antibody solution (anti-DIG-AP, Roche, in blocking buffer) for 30 minutes. After being washed with 100 μL of detection buffer [0.1 M Tris-HCl and 0.1 M NaCl (pH 9.5)], each well was added with 1 μL of chemiluminescent substrate (CSPD-0.25 mM), and the plate was incubated at 17° C. for 5 minutes. Afterwards, the plate was patted dry and incubated at 37° C. for 30 minutes. The remaining DIG-AP marker control in each well was counted for 10 minutes by a luminescence multi-well plate reader (Enspire, PerkinElmer). Higher reading indicated weaker helicase activity.
Positive control and negative controls were set for this acticity assay. Among them, one negative control group, which differed from the experimental group only in that the former was not added with ATP (other conditions were the same as the experimental group), was used for the comparison with the experimental group; another negative control group, which differed from the experimental group only in that the former was not added with DHX33 protein (other conditions were the same as the experimental group), was used for the comparison with the experimental group. The positive control group was set for the comparison with the wild-type DHX33 protein (standard substance).
Biochemistry. 2019:58 (4):250-8.
Compounds having a series of concentration (the concentrations were set at 1 nM, 5 nM, 10 nM, 20 nM, 50 nM, 100 nM, 250 nM, 500 nM, and 1000 nM) were used to conduct the helicase activity assay of […] protein in vitro. The half-maximal inhibitory concentrations of the compounds of the present disclosure on the helicase activity of […] protein were as shown in Table 1.

Turning to `CCOC(=O)c1nc(C)sc1-n1c(C)cc(/C=C(\C#N)c2nc3cc(OC)ncc3[nH]2)c1C` [AB24314, ethyl (E)-5-(3-(2-cyano-2-(6-methoxy-3H-imidazo[4,5-c]pyridin-2-yl)vinyl)-2,5-dimethyl-1H-pyrrol-1-yl)-2-methylthiazole-4-carboxylate], the IC50 was 100 to 1000 nM in the test on U251-MG cells and 20 to 100 nM on DHX33 protein.

With `COc1ccc2nc(/C(C#N)=C/c3cc(C)n(-c4sc(C)cc4C#N)c3C)[nH]c2c1` [AB24321], the IC50 in the test on U251-MG cells was 100 to 1000 nM; on DHX33 protein it was < 20 nM.

With `COC(=O)c1c(-n2c(C)cc(/C=C(\C#N)c3nc4ccc(OC)cc4[nH]3)c2C)sc(C)c1C` [AB24322, methyl (E)-2-(3-(2-cyano-2-(6-methoxy-1H-benzo[d]imidazol-2-yl)vinyl)-2,5-dimethyl-1H-pyrrol-1-yl)-4,5-dimethylthiophene-3-carboxylate], the IC50 in the test on U251-MG cells was 1000 to 5000 nM; at DHX33 protein, 100 to 400 nM.

Take `COC(=O)c1cc(C)c(-n2c(C)cc(/C=C(\C#N)c3nc4cc(OC)ncc4[nH]3)c2C)s1` [AB24335]: the IC50 is 1000 to 5000 nM with U251-MG cells and 20 to 100 nM on DHX33 protein.

`COc1cc2nc(/C(C#N)=C/c3cc(C)n(-c4sc(-c5ccccn5)cc4C#N)c3C)[nH]c2cn1` [AB24336, (E)-2-(3-(2-cyano-2-(6-methoxy-3H-imidazo[4,5-c]pyridin-2-yl)vinyl)-2,5-dimethyl-1H-pyrrol-1-yl)-5-(pyridin-2-yl)thiophene-3-carbonitrile]: the values for the IC50 in the test with U251-MG cells and at DHX33 protein were 1000 to 5000 nM and 100 to 400 nM, respectively.

As to `COc1cc2nc(/C(C#N)=C/c3cc(C)n(-c4sc(C)nc4C(N)=O)c3C)[nH]c2cn1` [AB24351, (E)-5-(3-(2-cyano-2-(6-methoxy-3H-imidazo[4,5-c]pyridin-2-yl)vinyl)-2,5-dimethyl-1H-pyrrol-1-yl)-2-methylthiazole-4-carboxamide], the IC50 in the test on U251-MG cells is 100 to 1000 nM; at DHX33 protein, 20 to 100 nM.

On to `COc1ccn2c(c1)nc1cc(-c3cc(C)n(-c4sc(C)cc4C#N)c3C)ccc12` [AB24379, 2-(3-(3-methoxybenzo[4,5]imidazo[1,2-a]pyridin-7-yl)-2,5-dimethyl-1H-pyrrol-1-yl)-5-methylthiophene-3-carbonitrile], for which the IC50 with U251-MG cells lay within 1000 to 5000 nM; on DHX33 protein, 20 to 100 nM.

Turning to `COc1ccc2nc(NC(=O)c3cc(C)n(-c4sc(C)cc4C#N)c3C)[nH]c2c1` [AB24386, 1-(3-cyano-5-methylthiophen-2-yl)-N-(6-methoxy-1H-benzo[d]imidazol-2-yl)-2,5-dimethyl-1H-pyrrole-3-carboxamide], the results for the IC50 in the test with U251-MG cells and on DHX33 protein were < 100 nM and < 20 nM, respectively.

Turning to `COc1ccc2nc(NC(=O)c3cc(C)n(-c4sc(C)cc4C(N)=O)c3C)[nH]c2c1` [AB24387, 1-(3-carbamoyl-5-methylthiophen-2-yl)-N-(6-methoxy-1H-benzo[d]imidazol-2-yl)-2,5-dimethyl-1H-pyrrole-3-carboxamide], the IC50 lay within 100 to 1000 nM in the test on U251-MG cells and 20 to 100 nM on DHX33 protein.

Turning to `COc1cc2nc(/C(C#N)=C/c3cc(C)n(Cc4cccs4)c3C)[nH]c2cn1` [AB24399, (E)-3-(2,5-dimethyl-1-(thiophen-2-ylmethyl)-1H-pyrrol-3-yl)-2-(6-methoxy-3H-imidazo[4,5-c]pyridin-2-yl)acrylonitrile], the IC50 with U251-MG cells was < 100 nM; on DHX33 protein, < 20 nM.

As for `COc1ccc2cc(NC(=O)c3cc(C)n(-c4sc(C)nc4C#N)c3C)[nH]c2c1` [AB29501], the IC50 with U251-MG cells was < 100 nM; at DHX33 protein, < 20 nM.

Take `COc1cc2nc(/C(C#N)=C/c3cc(C)n([C@@H](C)c4ccccc4)c3C)[nH]c2cn1` [AB29506, (S,E)-3-(2,5-dimethyl-1-(1-phenylethyl)-1H-pyrrol-3-yl)-2-(6-methoxy-3H-imidazo[4,5-c]pyridin-2-yl)acrylonitrile]: the IC50 in the test with U251-MG cells is < 100 nM; at DHX33 protein it was < 20 nM.

In the case of `COc1cc2nc(/C(C#N)=C/c3cnc(-c4ccccc4)n3C)[nH]c2cn1` [AB29511, (E)-2-(6-methoxy-3H-imidazo[4,5-c]pyridin-2-yl)-3-(1-methyl-2-phenyl-1H-imidazol-5-yl)acrylonitrile], the results for the IC50 in the test with U251-MG cells and at DHX33 protein were 5000 to 20000 nM and 400 to 1000 nM, respectively.

On to `Cc1oc(-n2c(C)cc(/C=C(\C#N)c3nc4ccccc4[nH]3)c2C)c(C#N)c1C` [Compound as control, reference compound], for which the IC50 with U251-MG cells was in the range of 5000 to 20000 nM; on DHX33 protein, 400 to 1000 nM.
